Results published in patent US4200635A, “Antibacterially active amides” (Beecham Group Limited, priority 1977, dated 1980).
Converted amounts (≈) assume the structure as drawn. Read-outs that look alike come from different tables or passages of the source.

Key:
[1] = system: M. pneumoniae 427a; assay: in vitro MIC, anti-mycoplasmal activity; assay type: cell-based; conditions: Mycoplasmoides pneumoniae, Friis' broth, microtiter method
[2] = system: Neisseria catarrhalis 1502; assay: MIC, serial dilution in nutrient agar, human bacteria; assay type: cell-based
[3] = system: Past. multocida PAI; assay: MIC, veterinary bacteria; assay type: cell-based; conditions: Pasteurella multocida
[4] = system: M. suipneumoniae Str. 11; assay: in vitro MIC, anti-mycoplasmal activity; assay type: cell-based; conditions: Mesomycoplasma hyopneumoniae, Friis' broth, microtiter method
[5] = system: Staph. aureus Russell; assay: MIC, serial dilution in nutrient agar, human bacteria; assay type: cell-based; conditions: Staphylococcus aureus
[6] = system: Strep. dysgalactiae SPD 1; assay: MIC, veterinary bacteria; assay type: cell-based; conditions: Streptococcus dysgalactiae, SPD1
[7] = system: M. pulmonis JB; assay: in vitro MIC, anti-mycoplasmal activity; assay type: cell-based; conditions: Mycoplasmopsis pulmonis, Friis' broth, microtiter method
Text: (§1) Tables 3 and 4 show the in vitro MIC values (μg/ml) of the compounds of Examples 1 to 9 against a number of mycoplasma organisms, determined in Friis' broth using the microtiter method.

[8] = system: M. suipneumoniae J2206/183b; assay: in vitro MIC, anti-mycoplasmal activity; assay type: cell-based; conditions: Mesomycoplasma hyopneumoniae, Friis' broth, microtiter method
Text: as §1

[9] = system: M. fermentans MWKL4; assay: in vitro MIC, anti-mycoplasmal activity; assay type: cell-based; conditions: Mycoplasmopsis fermentans, Friis' broth, microtiter method
Text: as §1

[10] = system: M. dispar H225; assay: in vitro MIC, anti-mycoplasmal activity; assay type: cell-based
Text: as §1

[11] = system: M. dispar NCTC 10125; assay: in vitro MIC, anti-mycoplasmal activity; assay type: cell-based; conditions: Friis' broth, microtiter method
Text: as §1

[12] = system: Strep. uberis SPU 1; assay: MIC, veterinary bacteria; assay type: cell-based; conditions: Streptococcus uberis, SPU1
[13] = system: Haemophilus influenzae Q1; assay: MIC, serial dilution in nutrient agar, human bacteria; assay type: cell-based; conditions: nutrient agar containing 5% chocolated horse blood
[14] = system: Past. haemolytica PA5; assay: MIC, veterinary bacteria; assay type: cell-based; conditions: Mannheimia haemolytica
[15] = system: Staph. aureus B4; assay: MIC, veterinary bacteria; assay type: cell-based; conditions: Staphylococcus aureus
[16] = system: Bord. bronchiseptica BO9; assay: MIC, veterinary bacteria; assay type: cell-based; conditions: Bordetella bronchiseptica
[17] = system: Strep. pneumoniae CN33; assay: MIC, serial dilution in nutrient agar, human bacteria; assay type: cell-based; conditions: Streptococcus pneumoniae
[18] = system: Staph. aureus Oxford; assay: as above; assay type: cell-based; conditions: Staphylococcus aureus
[19] = system: Staph. aureus 152; assay: MIC, veterinary bacteria; assay type: cell-based; conditions: Staphylococcus aureus
[20] = system: Pasteurella multocida 1633; assay: MIC, serial dilution in nutrient agar, human bacteria; assay type: cell-based; conditions: nutrient agar containing 5% chocolated horse blood
[21] = system: Bacillus subtilis 6633; assay: as above; assay type: cell-based
[22] = system: M. pneumoniae ATCC 15492; assay: in vitro MIC, anti-mycoplasmal activity; assay type: cell-based; conditions: Mycoplasmoides pneumoniae, ATCC15492, Friis' broth, microtiter method
Text: as §1

[23] = system: Haemophilus influenzae Wy21; assay: MIC, serial dilution in nutrient agar, human bacteria; assay type: cell-based
[24] = Mouse blood levels; assay type: in vivo, male albino mice, CS1 strain; conditions: for concentration at 5 min / concentration at 10 min / concentration at 20 min / concentration at 0.5 h / concentration at 1 h / half-life: blood, sc, 50 mg/kg subcutaneous; for concentration at 5 min: 5 minutes after dosing; for concentration at 5 min / concentration at 10 min / concentration at 20 min / concentration at 0.5 h / concentration at 1 h: mean of 5 experiments, assay Neisseria catarrhalis, read-out: Concentration (blood level); for concentration at 10 min: 10 minutes after dosing; for concentration at 20 min: 20 minutes after dosing; for concentration at 0.5 h: 30 minutes after dosing; for concentration at 1 h: 60 minutes after dosing
Procedure: The blood levels of the 5-ethoxycarbonylpentyl amide of monic acid A were measured after subcutaneous dosing to male albino mice.
Species: Albino male mice 18-22 g CS1 strain.
Routes: Subcutaneous and oral.
Dose: 50 mg/kg. This compound was supplied as an oil. It was administered as a solution in 10% DMF v/v in PBS or water.
Assay: Neisseria catarrhalis, immediate assay of samples.

[25] = Neisseria catarrhalis 1502, nutrient agar containing 5% chocolated horse blood, read-out: M.I.C.
[26] = Past. multocida PAI, read-out: M.I.C.
[27] = Staph. aureus Russell, nutrient agar containing 5% chocolated horse blood, read-out: M.I.C.
[28] = Strep. dysgalactiae SPD 1, read-out: M.I.C.
[29] = M. dispar H225, Friis' broth, microtiter method, read-out: M.I.C.
[30] = Strep. uberis SPU 1, read-out: M.I.C.
[31] = Past. haemolytica PA5, read-out: M.I.C.
[32] = Staph. aureus B4, read-out: M.I.C.
[33] = Bord. bronchiseptica BO9, read-out: M.I.C.
[34] = Strep. pneumoniae CN33, nutrient agar containing 5% chocolated horse blood, read-out: M.I.C.
[35] = Staph. aureus Oxford, nutrient agar containing 5% chocolated horse blood, read-out: M.I.C.
[36] = Bacillus subtilis 6633, nutrient agar containing 5% chocolated horse blood, read-out: M.I.C.

Structure (SMILES) | MIC [1] [µg/mL] | MIC [2, 25] [µg/mL] | MIC [3, 26] [µg/mL] | MIC [4] [µg/mL] | MIC [5, 27] [µg/mL] | MIC [6, 28] [µg/mL] | MIC [7] [µg/mL] | MIC [8] [µg/mL] | MIC [9] [µg/mL] | MIC [10, 29] [µg/mL] | MIC [11] [µg/mL] | MIC [12, 30] [µg/mL] | MIC [13] [µg/mL] | MIC [14, 31] [µg/mL] | MIC [15, 32] [µg/mL] | MIC [16, 33] [µg/mL] | MIC [17, 34] [µg/mL] | MIC [18, 35] [µg/mL] | MIC [19] [µg/mL] | MIC [20] [µg/mL] | other results
C=CCNC(=O)C=C(C)CC1OCC(CC2OC2C(C)C(C)O)C(O)C1O (stereo not shown) [Example 8, Allylamide of monic acid A] | 10 (≈ 26.1 µM) | 100 (≈ 261 µM) | 1.25 (≈ 3.26 µM) | 0.625 (≈ 1.63 µM) | 100 (≈ 261 µM) | 0.156 (≈ 0.407 µM) | 0.039 (≈ 0.102 µM) | 1.25 (≈ 3.26 µM) | 0.039 (≈ 0.102 µM) | 0.078 (≈ 0.203 µM) | 0.078 (≈ 0.203 µM) | 0.625 (≈ 1.63 µM) | > 100 | 0.625 (≈ 1.63 µM) | 5 (≈ 13 µM) | 1.25 (≈ 3.26 µM) | 5 (≈ 13 µM) | 2.5 (≈ 6.52 µM) | 20 (≈ 52.2 µM) | 0.05 (≈ 0.13 µM) | MIC [21, 36]: 2.5 µg/mL (≈ 6.52 µM)
CC(=CC(=O)N1CCOCC1)CC1OCC(CC2OC2C(C)C(C)O)C(O)C1O (stereo not shown) [Example 6, Morpholinyl amide of monic acid A] | > 10 | 5 (≈ 12.1 µM) |  | 2.5 (≈ 6.05 µM) | 50 (≈ 121 µM) | 2.5 (≈ 6.05 µM) | 0.156 (≈ 0.377 µM) | 10 (≈ 24.2 µM) | 0.625 (≈ 1.51 µM) |  | 2.5 (≈ 6.05 µM) | 2.5 (≈ 6.05 µM) | 0.2 (≈ 0.484 µM) | 20 (≈ 48.4 µM) | 20 (≈ 48.4 µM) |  | 10 (≈ 24.2 µM) | 10 (≈ 24.2 µM) | > 80 | 1 (≈ 2.42 µM) | MIC [3]: 0.625 µg/mL (≈ 1.51 µM); MIC [22]: > 10 µg/mL; MIC [10]: 1.25 µg/mL (≈ 3.02 µM); MIC ([16]; BO9): 20 µg/mL (≈ 48.4 µM); MIC ([23]; Haemophilus influenzae, WY21): 0.5 µg/mL (≈ 1.21 µM); MIC ([21]; Bacillus subtilis, 6633): 10 µg/mL (≈ 24.2 µM)
COC(=O)CCCCCCCCNC(=O)C=C(C)CC1OCC(CC2OC2C(C)C(C)O)C(O)C1O (stereo not shown) [Example 7, 8-Methoxycarbonyloctylamide of monic acid A] | 10 (≈ 19.5 µM) |  | 1 (≈ 1.95 µM) | 1.25 (≈ 2.43 µM) | 25 (≈ 48.7 µM) | 0.0625 (≈ 0.122 µM) | < 0.02 | 10 (≈ 19.5 µM) | < 0.02 |  | 0.156 (≈ 0.304 µM) | 0.125 (≈ 0.243 µM) | 0.5 (≈ 0.973 µM) | 8 (≈ 15.6 µM) | 4 (≈ 7.79 µM) | 2 (≈ 3.89 µM) |  |  | 8 (≈ 15.6 µM) | 1 (≈ 1.95 µM) | MIC ([2]; Neisseria, 1502): 0.1 µg/mL (≈ 0.195 µM); MIC [22]: 10 µg/mL (≈ 19.5 µM); MIC [18]: 10 µg/mL (≈ 19.5 µM); MIC ([23]; Haemophilus influenzae, WY21): 0.5 µg/mL (≈ 0.973 µM); MIC ([21]; Bacillus subtilis, 6633): 2.5 µg/mL (≈ 4.87 µM)
COC(=O)CCCCCNC(=O)C=C(C)CC1OCC(CC2OC2C(C)C(C)O)C(O)C1O (stereo not shown) [Example 9, 5-Methoxycarbonylpentylamide of monic acid A] | 5 (≈ 10.6 µM) | < 0.02 | 10 (≈ 21.2 µM) | 0.625 (≈ 1.33 µM) |  |  | 0.039 (≈ 0.0827 µM) | 1.25 (≈ 2.65 µM) | 0.039 (≈ 0.0827 µM) | 0.312 (≈ 0.662 µM) | 0.312 (≈ 0.662 µM) |  | 0.2 (≈ 0.424 µM) | 10 (≈ 21.2 µM) | 20 (≈ 42.4 µM) |  |  |  | 20 (≈ 42.4 µM) | 0.2 (≈ 0.424 µM) | MIC [5]: 100 µg/mL (≈ 212 µM); MIC [6]: 0.312 µg/mL (≈ 0.662 µM); MIC [12]: 0.625 µg/mL (≈ 1.33 µM); MIC ([16]; BO9): 10 µg/mL (≈ 21.2 µM); MIC ([17]; CN33): 2.5 µg/mL (≈ 5.3 µM); MIC [18]: 25 µg/mL (≈ 53 µM); MIC [21, 36]: 10 µg/mL (≈ 21.2 µM)
CCOC(=O)CCCCCNC(=O)C=C(C)CC1OCC(CC2OC2C(C)C(C)O)C(O)C1O (stereo not shown) [Example 5, 5-Ethoxycarbonylpentylamide of monic acid A] | > 10 |  | 0.35 (≈ 0.721 µM) | 1.25 (≈ 2.57 µM) | 50 (≈ 103 µM) | 0.7 (≈ 1.44 µM) | < 0.02 | 2.5 (≈ 5.15 µM) | 0.039 (≈ 0.0803 µM) | 0.312 (≈ 0.642 µM) | 0.156 (≈ 0.321 µM) | 0.35 (≈ 0.721 µM) | 0.05 (≈ 0.103 µM) | 11 (≈ 22.7 µM) | 11 (≈ 22.7 µM) | 23 (≈ 47.4 µM) | 1 (≈ 2.06 µM) | 25 (≈ 51.5 µM) | 45 (≈ 92.7 µM) |  | concentration at 5 min [24]: 22100 ng/mL; concentration at 10 min [24]: 22600 ng/mL; concentration at 20 min [24]: 16100 ng/mL; concentration at 0.5 h [24]: 9100 ng/mL; concentration at 1 h [24]: < 4000 ng/mL; half-life [24]: 15 min; blood levels compared with pseudomonic acid ([24]; subcutaneous dosing): higher and more prolongued than those obtained after subcutaneous dosing of pseudomonic acid; MIC ([2]; Neisseria, 1502): 0.05 µg/mL (≈ 0.103 µM); MIC [22]: 10 µg/mL (≈ 20.6 µM); MIC ([23]; Haemophilus influenzae Wy21, nutrient agar containing 5% chocolated horse blood, read-out: M.I.C.): 0.5 µg/mL (≈ 1.03 µM); MIC [21, 36]: 10 µg/mL (≈ 20.6 µM)
COC(=O)CCNC(=O)C=C(C)CC1OCC(CC2OC2C(C)C(C)O)C(O)C1O (stereo not shown) [Example 10, 2-Methoxycarbonylethylamide of monic acid A] |  |  |  |  |  | 20 (≈ 46.6 µM) |  |  |  |  |  |  |  |  |  |  |  |  |  |  | MIC [3]: 0.625 µg/mL (≈ 1.46 µM); MIC [12]: 2.5 µg/mL (≈ 5.82 µM); MIC ([14]; PA5): 5 µg/mL (≈ 11.6 µM); MIC ([15]; B4): 80 µg/mL (≈ 186 µM); MIC ([16]; BO9): 20 µg/mL (≈ 46.6 µM)
C/C(=C\C(=O)OCCCCCCCCC(=O)O)C[C@@H]1OC[C@H](C[C@@H]2O[C@H]2[C@@H](C)[C@H](C)O)[C@@H](O)[C@H]1O [Pseudomonic Acid, reference compound] |  |  |  |  |  |  |  |  |  |  |  |  |  |  |  |  |  |  |  |  | concentration at 5 min [24]: 8200 ng/mL; concentration at 10 min [24]: 3700 ng/mL; concentration at 20 min [24]: 1100 ng/mL; concentration at 0.5 h [24]: 620 ng/mL; concentration at 1 h [24]: < 500 ng/mL; half-life [24]: 5 min
